In a compilation of properties of binary mixtures (doi:10.1016/j.jct.2010.03.017):

Experiment: xn = mol fraction of the nth substance listed
Conditions: 101 kPa

CC[n+]1ccn(C)c1.N#C[N-]C#N + O
electrical conductivity (293.2 K, x2 = 0.2): 2.72 S/m | electrical conductivity (293.2 K, x2 = 0.4): 3.47 S/m | electrical conductivity (298.2 K, x2 = 0.2): 3.09 S/m | electrical conductivity (298.2 K, x2 = 0.4): 3.91 S/m | electrical conductivity (298.2 K, x2 = 0.6): 5.06 S/m | electrical conductivity (298.2 K, x2 = 0.8): 6.41 S/m | electrical conductivity (303.2 K, x2 = 0.2): 3.48 S/m | electrical conductivity (303.2 K, x2 = 0.4): 4.4 S/m | electrical conductivity (303.2 K, x2 = 0.6): 5.7 S/m | electrical conductivity (303.2 K, x2 = 0.8): 7.2 S/m | electrical conductivity (308.2 K, x2 = 0.4): 4.91 S/m | electrical conductivity (308.2 K, x2 = 0.8): 8 S/m | electrical conductivity (313.2 K, x2 = 0.4): 5.43 S/m | electrical conductivity (313.2 K, x2 = 0.6): 7.03 S/m | electrical conductivity (318.2 K, x2 = 0.4): 5.97 S/m | electrical conductivity (318.2 K, x2 = 0.6): 7.73 S/m | electrical conductivity (318.2 K, x2 = 0.8): 9.63 S/m | electrical conductivity (323.2 K, x2 = 0.2): 5.25 S/m | electrical conductivity (323.2 K, x2 = 0.4): 6.52 S/m | electrical conductivity (323.2 K, x2 = 0.6): 8.42 S/m | electrical conductivity (323.2 K, x2 = 0.8): 10.5 S/m | electrical conductivity (328.2 K, x2 = 0.4): 7.08 S/m | electrical conductivity (328.2 K, x2 = 0.6): 9.14 S/m | electrical conductivity (328.2 K, x2 = 0.8): 11.4 S/m | electrical conductivity (333.2 K, x2 = 0.2): 6.22 S/m | electrical conductivity (333.2 K, x2 = 0.4): 7.65 S/m | electrical conductivity (333.2 K, x2 = 0.6): 9.85 S/m | electrical conductivity (333.2 K, x2 = 0.8): 12.2 S/m | electrical conductivity (338.2 K, x2 = 0.2): 6.71 S/m | electrical conductivity (338.2 K, x2 = 0.8): 13.1 S/m | electrical conductivity (343.2 K, x2 = 0.2): 7.26 S/m | electrical conductivity (343.2 K, x2 = 0.4): 8.81 S/m | electrical conductivity (343.2 K, x2 = 0.6): 11.3 S/m | electrical conductivity (343.2 K, x2 = 0.8): 13.9 S/m | electrical conductivity (348.2 K, x2 = 0.2): 7.79 S/m | electrical conductivity (348.2 K, x2 = 0.4): 9.42 S/m | electrical conductivity (348.2 K, x2 = 0.6): 12 S/m | electrical conductivity (348.2 K, x2 = 0.8): 14.8 S/m | electrical conductivity (353.2 K, x2 = 0.2): 8.36 S/m | electrical conductivity (353.2 K, x2 = 0.4): 10 S/m | electrical conductivity (353.2 K, x2 = 0.6): 12.7 S/m | electrical conductivity (353.2 K, x2 = 0.8): 15.6 S/m

CCn1cc[n+](C)c1.COCCOCCOS(=O)(=O)[O-] + O
electrical conductivity (293.2 K, x2 = 0.2): 0.19 S/m | electrical conductivity (293.2 K, x2 = 0.4): 0.24 S/m | electrical conductivity (293.2 K, x2 = 0.6): 0.42 S/m | electrical conductivity (293.2 K, x2 = 0.8): 0.82 S/m | electrical conductivity (298.2 K, x2 = 0.2): 0.23 S/m | electrical conductivity (298.2 K, x2 = 0.8): 0.99 S/m | electrical conductivity (303.2 K, x2 = 0.2): 0.3 S/m | electrical conductivity (303.2 K, x2 = 0.4): 0.38 S/m | electrical conductivity (303.2 K, x2 = 0.6): 0.63 S/m | electrical conductivity (303.2 K, x2 = 0.8): 1.18 S/m | electrical conductivity (308.2 K, x2 = 0.2): 0.38 S/m | electrical conductivity (308.2 K, x2 = 0.4): 0.47 S/m | electrical conductivity (308.2 K, x2 = 0.6): 0.76 S/m | electrical conductivity (308.2 K, x2 = 0.8): 1.4 S/m | electrical conductivity (313.2 K, x2 = 0.4): 0.57 S/m | electrical conductivity (313.2 K, x2 = 0.6): 0.9 S/m | electrical conductivity (318.2 K, x2 = 0.2): 0.56 S/m | electrical conductivity (318.2 K, x2 = 0.4): 0.68 S/m | electrical conductivity (318.2 K, x2 = 0.6): 1.06 S/m | electrical conductivity (318.2 K, x2 = 0.8): 1.87 S/m | electrical conductivity (323.2 K, x2 = 0.2): 0.67 S/m | electrical conductivity (323.2 K, x2 = 0.4): 0.79 S/m | electrical conductivity (323.2 K, x2 = 0.6): 1.22 S/m | electrical conductivity (323.2 K, x2 = 0.8): 2.12 S/m | electrical conductivity (328.2 K, x2 = 0.2): 0.79 S/m | electrical conductivity (328.2 K, x2 = 0.6): 1.4 S/m | electrical conductivity (328.2 K, x2 = 0.8): 2.39 S/m | electrical conductivity (333.2 K, x2 = 0.2): 0.92 S/m | electrical conductivity (333.2 K, x2 = 0.4): 1.06 S/m | electrical conductivity (333.2 K, x2 = 0.6): 1.58 S/m | electrical conductivity (333.2 K, x2 = 0.8): 2.68 S/m | electrical conductivity (338.2 K, x2 = 0.4): 1.2 S/m | electrical conductivity (343.2 K, x2 = 0.2): 1.2 S/m | electrical conductivity (343.2 K, x2 = 0.4): 1.35 S/m | electrical conductivity (343.2 K, x2 = 0.6): 1.96 S/m | electrical conductivity (348.2 K, x2 = 0.6): 2.17 S/m | electrical conductivity (348.2 K, x2 = 0.8): 3.59 S/m | electrical conductivity (353.2 K, x2 = 0.2): 1.51 S/m | electrical conductivity (353.2 K, x2 = 0.4): 1.68 S/m
